Measured values as given in patent US20240300987A1, “TRAP1 INHIBITOR AND USE THEREOF” (SMARTIN BIO INC., priority 2021, published 2024).
Entries after “also recorded” stand apart in the source; their conditions may differ.

Assays:
[1] = molecular target: T1, human full-length TRAP1 protein (Homo sapiens, UniProt Q12931); assay: Fluorescence polarization (FP) analysis using SB-TM2 probe (client-binding site); settings: for IC50: FP analysis using SB-TM2; for Activity compared to that of SMX: TRAP1 binding, relative to SMX of the same table; for binding capacity compared to that of SMX (MitoQ): result in words
T1 construct: containing human full-length TRAP1 protein (400 nM); hexahistidine tag followed by TEV protease cleavage site (N, cleaved yes); made in house; host or cells: E. coli BL21 (DE3)
T1 sequence (Q12931 60-704): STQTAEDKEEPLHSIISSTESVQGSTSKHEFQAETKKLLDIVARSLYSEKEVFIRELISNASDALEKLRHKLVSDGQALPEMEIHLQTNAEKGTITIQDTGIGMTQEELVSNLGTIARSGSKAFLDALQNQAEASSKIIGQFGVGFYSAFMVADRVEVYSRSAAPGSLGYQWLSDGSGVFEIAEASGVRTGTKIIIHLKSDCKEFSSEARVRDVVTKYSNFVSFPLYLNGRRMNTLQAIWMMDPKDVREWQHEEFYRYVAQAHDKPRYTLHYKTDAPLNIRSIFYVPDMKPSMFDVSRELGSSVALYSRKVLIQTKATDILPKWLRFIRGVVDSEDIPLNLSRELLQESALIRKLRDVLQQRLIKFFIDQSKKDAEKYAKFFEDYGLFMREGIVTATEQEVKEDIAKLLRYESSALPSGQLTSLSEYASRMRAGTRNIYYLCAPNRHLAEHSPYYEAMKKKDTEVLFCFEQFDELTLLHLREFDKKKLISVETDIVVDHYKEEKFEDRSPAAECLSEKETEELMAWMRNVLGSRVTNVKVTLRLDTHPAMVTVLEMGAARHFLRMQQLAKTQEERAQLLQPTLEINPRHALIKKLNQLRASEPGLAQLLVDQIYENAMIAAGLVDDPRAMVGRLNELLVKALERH
Method: The substance to be analyzed (at a final volume of 100 μL) was added to FP buffer ([…], 2.7 mM KCl, 4.3 mM Na2HPO4, 1.4 mM KH2PO4 (pH 7.3), 1 mM DTT, 2 mM MgCl2, and 0.1 mg/mL BSA) containing human full-length TRAP1 protein (400 nM) and SB-TM2 probe (100 nM) and then reacted at room temperature for 1 hour (96-well plate). Using a SYNERGY NEO microplate reader, FP was measured at an excitation wavelength set to 440 nm and an emission wavelength set to 500 nm.

HIF1α = assay: Drug activity assay using MIO-M1 HRE/GFP cell line under hypoxia; format: cell-based; settings: for IC50: HIF1α inhibitory activity in MIO-M1 cells, 1% O2 24 hours; for Activity compared to that of SMX: HIF1α inhibition, relative to SMX of the same table
Method: After transfection (jetPRIME kit) of MIO-M1 Müller cells with 5HRE/GFP plasmid (Addgene, #46926), the cells transfected with the plasmid were selected using 1 mg/ml of G418 (Neomycin), a selectable marker. A stable cell line was constructed by selecting cells, growing in a colony form, from single cells. The prepared MIO-M1-HRE/GFP stable cell line was dispensed into a 96-well plate and treated with drugs at different concentrations the next day. After being exposed to a hypoxic environment (1% O2) for 24 hours, the GFP (Ex/Em: 488/507) fluorescence signal was measured using a SYNERGY NEO microplate reader (BioTek Instrument). The relative fluorescence value was calculated on the basis of 100% of the negative control group.

TRAP1 [2] = molecular target: T2, TRAP1 (Homo sapiens, UniProt Q12931); assay: Protein expression analysis by western blot in 22Rv1 cells, TRAP1 inhibition markers; format: cell-based; parameters: endogenous in cells; host or cells: 22Rv1; settings: 5 µM of each compound, 2 hours
T2 sequence (Q12931 60-704): T1 sequence (Q12931 60-704)
Method: Human cancer cell line 22Rv1 was purchased from the American Type Culture Collection (ATCC) and maintained as recommended by the supplier. Briefly, cancer cells were incubated in a DMEM or RPMI medium (GIBCO) containing 10% fetal bovine serum (FBS; ATCC) and 1% penicillin/streptomycin (GIBCO) at 37° C. in a humidified atmosphere of 5% CO2. The cells were not incubated for more than 6 months.
The 22Rv1 cells were treated with 5 µM of each compound, cultured for 2 hours, and then analyzed by western blot.
Cell lysates were separated by SDS-PAGE and transferred to a PVDF membrane. The membrane was blocked with 10% skim milk in TBST (TBS containing 0.05% Tween-20) for 1 hour at room temperature and incubated with primary antibodies overnight at 4° C. The membrane was washed with TBST three times for 1 hour and incubated with secondary antibodies (1:5000) diluted in 10% skim milk in TBST for 1 hour. The membrane was washed with TBST three times and visualized using an enhanced chemiluminescence detection kit (BioRad).

22Rv1 cells = assay: In vivo mouse xenograft; parameters: species or system mice; settings: 3 mg/Kg intraperitoneally daily
Method: Immunodeficient athymic nude mice (male, 8 weeks old) were purchased from OrientBio. The mice were maintained in a pathogen-free facility (12-hour dark/light cycle) at the UNIST In Vivo Research Center and supplied with standard diet and water. All animal experiments were approved by UNIST ([…]-19-11). 22Rv1 cells (1×10^7) were injected subcutaneously into both sides of the nude mice. When the tumor size reached approximately 100 mm^3, 3 mg/Kg drugs (MitoQ, SB-U014, and SB-U015) and vehicle (DMSO) dissolved in 20% cremophor EL (Sigma) in PBS were administered intraperitoneally daily. The tumor volume was measured daily using an electronic caliper and calculated using the following equation: V=½× (width) 2× length. When the experiment was completed, animals were euthanized, and the tumor was collected for histology and western blot. Band intensities were quantified using ImageJ software (National Institute of Health, USA). In this case, western blot was performed in the same manner as described above.

TRAP1 [3] = molecular target: T2, TRAP1; assay: ATPase activity assay (PiColorLock Gold Phosphate Detection Kit); format: biochemical; parameters: hexahistidine tag followed by TEV protease cleavage site (N, cleaved yes); made in house; host or cells: E. coli BL21 (DE3); settings: result in words
Method: The ATPase activity of TRAP1 was measured using the PiColorLock Gold Phosphate Detection Kit (Abcam). Then, 0.5 µM TRAP1 (wild-type or mutation) was pre-incubated along with inhibitors at various concentrations for 30 minutes and then incubated with 0.2 mM ATP at 37° C. for 3 hours in ATPase activity assay buffer containing 50 mM Tris-HCl, 20 mM KCl, and 6 mM MgCl (pH 7.4). Next, 20 µL of a mixture of a PiColorLock Gold reagent and an accelerator (100:1) was added to each sample (100 μL). After 5 minutes of incubation, 10 μL of a stabilizer was added to stop color development. Absorbance was measured at 620 nm using a microplate reader (Synergy NEO, BioTek). The background signal was normalized by subtracting the absorbance of unreacted samples.

[4] = MIO-M1, 24 h, Table 6, alkyl-TPPs
[5] = Table 4, other synthetic compounds
[6] = 22Rv1 xenograft in nude mice, compared to DMSO
[7] = MIO-M1, 24 h, Table 9, other synthetic compounds
[8] = Table 3, other synthetic compounds

SMILES | IC50 ([1]; Table 1, alkyl-TPPs) [nM] | Activity compared to that of SMX ([1]; Table 1) | binding capacity compared to that of SMX (MitoQ) [1] | IC50 (HIF1α; [4]) [nM] | Activity compared to that of SMX (HIF1α; Table 6) | SDHB and SIRT3 expression (TRAP1 inhibition) (TRAP1 [2]) | IC50 [1, 5] [nM] | Activity compared to that of SMX ([1]; Table 4) | IC50 (HIF1α; [7]) [nM] | Activity compared to that of SMX (HIF1α; Table 9) | TRAP1 ATPase activity with increasing concentration (TRAP1 [3]) | IC50 [1, 8] [nM] | Activity compared to that of SMX ([1]; Table 3) | Activity compared to that of SMX (HIF1α; Table 8) | further results
CCCCCCCCCCCCCC[P+](c1ccccc1)(c1ccccc1)c1ccccc1 [TPP-14, Tetradecyltriphenylphosphonium] | 384 ± 39.2 | 1.62 | superior to that of SMX | 34 ± 39.2 | 13.76 | strong effects | – | – | – | – | – | – | – | – | –
COc1cc(C)c(CCCCCCCCCC[P+](c2ccccc2)(c2ccccc2)c2ccccc2)cc1OC [SB-U015, (10-(4,5-Dimethoxy-2-methylphenyl)decyl)triphenylphosphonium] | – | – | – | – | – | – | 1830 ± 285 | 0.22 | 88.7 ± 5.8 | 3.14 | did not show a tendency that the ATPase activity decreased in a concentration-dependent manner | – | – | – | tumor size (22Rv1 cells; [6]): the tumor size became smaller; tumor weight (22Rv1 cells; [6]): the tumor weight decreased; Akt, Cdk4, and Hsp70 in tumors (western blot) (22Rv1 cells; 22Rv1 xenograft tumors): without causing changes in Akt, Cdk4, and Hsp70; SDHB, SIRT3, p-AMPK and CHOP in tumors (western blot) (22Rv1 cells; 22Rv1 xenograft tumors): decreases in SDHB and SIRT3, activated AMPK (p-AMPK), and induced the mitochondrial unfolded protein response (CHOP)
CC(C)NCCCn1c(Sc2cc3c(cc2I)OCO3)nc2c(N)ncnc21 [PU-H71, reference compound] | – | – | – | – | – | – | – | – | – | – | ATPase activity decreased with the increasing concentration | – | – | – | –
COC1=C(OC)C(=O)C(CCCCCCCCCC[P+](c2ccccc2)(c2ccccc2)c2ccccc2)=C(C)C1=O [SMX, (10-(4,5-Dimethoxy-2-methyl-3,6-dioxocyclohexadien-1-yl)decyl)triphenylphosphonium, reference compound] | 623 ± 37.5 | 1 | – | 468 ± 15.1 | 1 | – | 406 ± 38.9 | 1 | 279 ± 17 | 1 | – | 791 ± 51.2 | 1 | 1 | IC50 ([1]; Table 2, antioxidant-TPP conjugates): 824 ± 51.2 nM; Activity compared to that of SMX ([1]; Table 2): 1; IC50 (HIF1α; MIO-M1, 24 h, Table 7, TPP-antioxidant conjugates): 327 ± 22.9 nM; IC50 (HIF1α; MIO-M1, 24 h, Table 8, other synthetic compounds): 514 ± 55.2 nM; Activity compared to that of SMX (HIF1α; Table 7): 1
CCCCCCCCCCCCCCCC[P+](c1ccccc1)(c1ccccc1)c1ccccc1 [TPP-16, Hexadecyltriphenylphosphonium] | 309 ± 26 | 2.01 | superior to that of SMX; also recorded: twice as strong as that of SMX | 30 ± 26 | 15.59 | strong effects | – | – | – | – | – | – | – | – | binding capacity compared to that of SMX (MitoQ) ([1]; listed as hexadecyl-TPP): superior to that of SMX; also recorded: twice as strong as that of SMX
COc1c(Br)c(C)c(CCCCCCCCCC[P+](c2ccccc2)(c2ccccc2)c2ccccc2)c(OC)c1OC [SB-U011, (10-(3-Bromo-4,5,6-trimethoxy-2-methylphenyl)decyl)triphenylphosphonium] | – | – | – | – | – | – | – | – | – | – | did not show a tendency that the ATPase activity decreased in a concentration-dependent manner | 684 ± 72.9 | 1.156 | 6.02 | IC50 (HIF1α; Table 8, other synthetic compounds): 85.3 ± 8.8 nM
